Test [1] has as its system T. gallinae trophozoites. The experiment in a line: Anti-Trichomonas activity assay (MTT viability). It counts as cell-based. Conditions: pure compounds. The protocol: The anti-Trichomonas (AT) activity assay utilized T. gallinae trophozoites from an isolate obtained from a wood pigeon by Dr. […] EOs and pure compounds were solved in DMSO (Sigma, Madrid, Spain) (<1% final concentration). […] Trophozoites/promastigotes viability was assessed using the modified MTT colorimetric assay, as described previously in the literature, with results further validated by microscopic examination. The plate was analyzed in a spectrophotometer at a wavelength of 570 nm. The percentage of antiparasitic activity was calculated as growth inhibition, using the following formula: % AT = 100 - [(Ap - Ab) ÷ (Ac - Ab)] × 100, where Ap is the absorbance of the tested product, Ab the absorbance of the blank and Ac the absorbance of the control wells (culture without treatment). […] Metronidazole (Acros Organics, Madrid, Spain) served as a reference compound for anti-Giardia activity and Anti-Trichomonas activity and amphotericin B for anti-Leishmania activity. Data was analyzed using STATGRAPHICS Centurion XIX ([…].com) (Statgraphics Technologies, Inc., The Plains, VA, USA). The mammalian cells and trophozoites viability were tested with each compound in a dose-response experiment to calculate their relative potency (CC50 or IC50 value, respectively).

Test [2] has as its system T. gallinae trophozoites. Kind of test: Morphological evaluation by light microscopy (Diff-Quik), T. gallinae. The class given is cell-based, Trichomonas gallinae. Conditions: germacrone 100 µg/mL. The source says:
At each time point, quadruplicates were assigned per condition: growth control, germacrone, and the corresponding positive control (metronidazole or amphotericin B). For microscopy, quadruplicate wells corresponding to the same condition/time point were pooled prior to centrifugation to obtain sufficient biomass and a representative pellet for smear preparation. Pooled samples per condition/time point were centrifuged, resuspended in FBS and spread onto microscope slides. Once dried, samples were fixed and stained with Diff-Quik (Medion Diagnostic AG, […], Switzerland) following the manufacturer's instructions. Additionally, three wells per condition (triplicates) were used for the MTT assay, with absorbance measured by spectrophotometry after 48 h. Morphological changes were analyzed using light microscopy. Experiments were performed as independent biological replicates on different plates, and one Diff-Quik stained smear was obtained per condition and time point per biological replicate. For morphometric analysis, a total of 30 trophozoites per condition and time point were measured across the independent biological replicates and were selected by consecutive sampling during a predefined serpentine (zig-zag) scan across the preparation. Up to two eligible trophozoites per field (intact, well-focused and non-overlapping) were measured in sequential fields until n = 30 was reached, avoiding subjective selection of “representative” cells. Overlapping, partially visible, out-of-focus, edge-of-field, or debris-obscured trophozoites were excluded a priori. Trophozoites were photographed using a researcher's mobile phone mounted to the microscope ocular. Calibration was performed at the same magnification using a stage micrometre and applied in ImageJ v. 1.54d. One Diff-Quik stained smear was obtained per condition/time point per biological replicate Cell length, cell width, cell surface, nuclear length, nuclear width, axoneme (only Giardia), and length of axostyle (only T. gallinae) were measured with ImageJ software, and the data were recorded in an Excel database for statistical analysis. The Shapiro-Wilk test was used to assess the normality of the morphological variables. When data followed a normal distribution, Student's t-test was applied; otherwise, non-parametric tests, such as the Mann-Whitney U test, was used. Values of p < 0.05 were considered significant. For the morphological analysis, the mean, standard deviation, median, and interquartile range were calculated using SPSS version 20 (IBM Corp., Armonk, NY, USA).

Test [3] relates to L. infantum promastigotes. The experiment in a line: Morphological evaluation by light microscopy (Diff-Quik), L. infantum. The class given is cell-based, Leishmania infantum. The conditions noted are these: germacrone 100 µg/mL. The protocol:
L. infantum, T. gallinae and G. duodenalis were studied at 0, and 48 h after treatment with germacrone (100 µg/mL), and controls (DMSO 1%, metronidazole at 10 µg/mL for T. gallinae and G. duodenalis and amphotericin B at 1 µg/mL for L. infantum).
For L. infantum and T. gallinae, cultures in the exponential growth phase (10^7 promastigotes/mL and 5 × 10^5 trophozoites/mL, respectively) were treated in 96-well microplates. At each time point, quadruplicates were assigned per condition: growth control, germacrone, and the corresponding positive control (metronidazole or amphotericin B). For microscopy, quadruplicate wells corresponding to the same condition/time point were pooled prior to centrifugation to obtain sufficient biomass and a representative pellet for smear preparation. Pooled samples per condition/time point were centrifuged, resuspended in FBS and spread onto microscope slides. Once dried, samples were fixed and stained with Diff-Quik (Medion Diagnostic AG, Düdingen, Switzerland) following the manufacturer’s instructions. Additionally, three wells per condition (triplicates) were used for the MTT assay, with absorbance measured by spectrophotometry after 48 h.
Morphological changes were analyzed using light microscopy. Experiments were performed as independent biological replicates on different plates, and one Diff-Quik stained smear was obtained per condition and time point per biological replicate. For morphometric analysis, a total of 30 trophozoites per condition and time point were measured across the independent biological replicates and were selected by consecutive sampling during a predefined serpentine (zig-zag) scan across the preparation. Up to two eligible trophozoites per field (intact, well-focused and non-overlapping) were measured in sequential fields until n = 30 was reached, avoiding subjective selection of “representative” cells. Overlapping, partially visible, out-of-focus, edge-of-field, or debris-obscured trophozoites were excluded a priori. Trophozoites were photographed using a researcher’s mobile phone mounted to the microscope ocular. Calibration was performed at the same magnification using a stage micrometre and applied in ImageJ v. 1.54d. One Diff-Quik stained smear was obtained per condition/time point per biological replicate Cell length, cell width, cell surface, nuclear length, nuclear width, axoneme (only Giardia), and length of axostyle (only T. gallinae) were measured with ImageJ software, and the data were recorded in an Excel database for statistical analysis.
The Shapiro–Wilk test was used to assess the normality of the morphological variables. When data followed a normal distribution, Student’s t-test was applied; otherwise, non-parametric tests, such as the Mann–Whitney U test, was used. Values of p < 0.05 were considered significant. For the morphological analysis, the mean, standard deviation, median, and interquartile range were calculated using SPSS version 20 (IBM Corp., Armonk, NY, USA).

Where [4] appears, read: metronidazole 10 µg/mL, 0.5 and 48 h, control DMSO 1%.

In brackets after ≈: the same amount, converted by molar mass. Entries after “also recorded” stand apart in the source; their conditions may differ.

Results on one molecule are retold here after publication PMC12841663, “Antiprotozoal Potential of Cultivated Geranium macrorrhizum Against Giardia duodenalis, Trichomonas gallinae and Leishmania infantum” (International Journal of Molecular Sciences, 2026).

For orientation: IC50 means the point on the concentration scale where inhibition reaches its midpoint. Low values mean greater potency in that assay, high ones weaker potency in that assay.

Take `CC(C)=C1C/C=C(\C)CC/C=C(\C)CC1=O` [Compound 2, germacrone]: the IC50 with T. gallinae trophozoites [1] amounted to 45.8 µg/mL (≈ 210 µM). Moreover, in the test with T. gallinae trophozoites [2] (setting [4]), the “axostyle length vs control” value is “decreased at 0.5 h; also recorded: after 48 h, it increased”; the “cell length vs control” value was “increase after 48 h”; the “cell surface area vs control” value is recorded as “decreased transiently at 0.5 h but increased at 48 h”; the “cell width vs control” value is “significant decrease exclusively in germacrone-treated parasites compared to the control at 0.5 h”. Further, in the test with T. gallinae trophozoites [2] (setting [4]), the “nuclear length vs control” value is reported as “increased upon germacrone exposure” and the “nuclear width vs control” value was “diminished at 0.5 h; also recorded: By 48 h, nuclear width increased”. In addition, the “morphological changes (light microscopy)” value with T. gallinae trophozoites [2] (48 h of exposure, Diff-Quik) is “elongation of the cytoplasm and the nucleus”. Also, in test [3] (0.5 and 48 h, control DMSO 1%), the “cell length vs control” value is “initial increase at 0.5 h but subsequently decreased at 48 h”; the “cell surface area vs control” value is on record as “transiently increased at 0.5 h with no significant changes detected at 48 h”; the “cell width vs control” value was “increased significantly at both 0.5 and 48 h”. In addition, in test [3] (48 h of exposure, Diff-Quik), the “morphological changes (light microscopy)” value is on record as “less pronounced”.
